Common to all, as to experiment: NCI tumour cell line growth inhibition, 48 h
Test [1] concerns ACHN.
The subject of test [2] is HCC 2998.
Test [3] concerns HOP-62.
The test system of test [4] is NCI-H460.
Test [5] deals with SNB-19.
Test [6] has as its system K562.
In test [7] the test system is UO-31.
Test [8] concerns OVCAR-8.
Test [9] has as its system COLO 205.
Test [10] deals with SNB-75.
The test system of test [11] is CCRF-CEM.
In test [12] the test system is SK-OV-3.
Test [13] has as its system HCT-15.
The subject of test [14] is NCI-H23.
Test [15] deals with SW-620.

Structures are written as SMILES.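 Where inhibition never reached the appropriate level, the endpoint shown equals the highest concentration tested. Otherwise, values were interpolated linearly from a five-concentration, 48-hour dose response in 96-well plates. At the GI50, growth is halved.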 The source made the active and inactive calls. No stated cut-off is given here; in the data, active = GI50 up to about 1.1 µM and inactive = higher. Some results are limits rather than exact numbers.

For the compound `COC(=O)/C(=N\NC(N)=O)C(C#N)c1ccccc1` (stereo not given), the GI50 in test [1], in test [2], in test [3], in test [4], in test [5] and in test [6] was > 100 µM (inactive) throughout. The GI50 in test [7], in [8], in test [9], in [10], in test [11] and in [12] was > 100 µM (inactive) each time. In addition, the figures for the GI50 in [13], in [14] and in [15] were > 100 µM, > 100 µM (inactive) and > 100 µM (inactive), respectively.
In the case of `Brc1ccc2c(C3CN[C@@H](c4c[nH]c5cc(Br)ccc45)CN3)c[nH]c2c1` (stereo not given in full), the GI50 in [1] is 3.46 µM (inactive); in [2] it was 2 µM (inactive); in test [3], 3.94 µM (inactive); in test [4] it was 1.3 µM (inactive); in test [5] it was 9.46 µM (inactive); in test [6], 1.65 µM (inactive). For the same compound, the GI50 in [7] is 5.68 µM (inactive); in test [8], 4.23 µM (inactive); in [9], 1.9 µM (inactive); in test [10], 16.1 µM (inactive); in test [11], 2.65 µM (inactive); in [12], 6.14 µM (inactive). The results for the GI50 in test [13], in [14] and in test [15] were 3.61 µM, 2.34 µM (inactive) and 2.48 µM (inactive), respectively.
As to `COC(=O)CCC(=O)NC1C2CC3CC(C2)CC1C3` (stereo not given), the GI50 in test [1], in test [2], in test [3], in test [4], in test [5] and in test [6] was > 100 µM (inactive) throughout. For the same compound, the GI50 is > 100 µM (inactive) in test [7]; > 100 µM (inactive) in test [8]; > 100 µM (inactive) in [9]; > 43.1 µM (inactive) in test [10]; > 100 µM (inactive) in [11]; > 100 µM (inactive) in test [12]. Further, the results for the GI50 in [13], in test [14] and in test [15] were > 100 µM, > 100 µM (inactive) and > 100 µM (inactive), respectively.
In the case of `Cc1ccc(C(=O)CC2(O)C(=O)Nc3c(C)cc(Cl)cc32)cc1` (stereo not given), the GI50 in test [1] is > 100 µM (inactive); in test [2] it was > 100 µM (inactive); in test [3] it was > 100 µM (inactive); in [4] it was > 100 µM (inactive); in test [5], > 100 µM (inactive); in test [6], 86.5 µM (inactive). For the same compound, the GI50 in [7] is > 100 µM (inactive); in [8], > 100 µM (inactive); in [9], > 100 µM (inactive); in test [10], 47.9 µM (inactive); in test [11], > 100 µM (inactive); in [12], > 100 µM (inactive). Moreover, the GI50 in test [13] is > 100 µM; in test [14], > 100 µM (inactive); in test [15], > 100 µM (inactive).
Take `CC1(C)CC(=O)C(/C(=N/NC(=S)NN)C(=O)Nc2nc3ccc([N+](=O)[O-])cc3s2)C(=O)C1`: the GI50 was > 100 µM (inactive) in [1]; > 100 µM (inactive) in test [2]; > 100 µM (inactive) in test [3]; > 100 µM (inactive) in [4]; > 100 µM (inactive) in test [5]; 62.1 µM (inactive) in test [6]. The GI50 in [7] was 89.7 µM (inactive); in test [8] it was > 100 µM (inactive); in test [9], > 100 µM (inactive); in [10], > 100 µM (inactive); in [11] it was 38.2 µM (inactive); in test [12] it was > 100 µM (inactive). The GI50 in test [13] was > 100 µM; in [14], > 100 µM (inactive); in test [15], > 100 µM (inactive).
